Data on 23 compounds can be found in patent publication US9440982B2 (Eolas Therapeutics, Inc., priority 2012, dated 2016).

T2 sequence (P08684 whole entry): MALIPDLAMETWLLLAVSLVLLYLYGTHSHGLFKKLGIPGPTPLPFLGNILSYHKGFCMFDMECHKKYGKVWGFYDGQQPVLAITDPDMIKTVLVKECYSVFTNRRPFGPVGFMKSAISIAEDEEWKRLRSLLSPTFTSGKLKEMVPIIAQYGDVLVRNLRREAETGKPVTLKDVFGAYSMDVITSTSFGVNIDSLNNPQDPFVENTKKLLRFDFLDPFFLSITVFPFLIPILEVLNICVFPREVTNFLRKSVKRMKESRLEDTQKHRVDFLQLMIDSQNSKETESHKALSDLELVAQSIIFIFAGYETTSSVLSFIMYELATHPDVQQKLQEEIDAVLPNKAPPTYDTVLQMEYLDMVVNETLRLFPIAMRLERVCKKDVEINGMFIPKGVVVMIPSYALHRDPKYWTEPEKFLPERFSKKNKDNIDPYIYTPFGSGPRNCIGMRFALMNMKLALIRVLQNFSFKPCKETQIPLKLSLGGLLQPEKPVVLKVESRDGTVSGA

One data set addresses T1, OX1 (Homo sapiens, UniProt O43613).
T1 construct: expressed in transfected cells; host or cells: CHO (CHO-OX1, kept under selection antibiotic)
T1 sequence (O43613 1-425): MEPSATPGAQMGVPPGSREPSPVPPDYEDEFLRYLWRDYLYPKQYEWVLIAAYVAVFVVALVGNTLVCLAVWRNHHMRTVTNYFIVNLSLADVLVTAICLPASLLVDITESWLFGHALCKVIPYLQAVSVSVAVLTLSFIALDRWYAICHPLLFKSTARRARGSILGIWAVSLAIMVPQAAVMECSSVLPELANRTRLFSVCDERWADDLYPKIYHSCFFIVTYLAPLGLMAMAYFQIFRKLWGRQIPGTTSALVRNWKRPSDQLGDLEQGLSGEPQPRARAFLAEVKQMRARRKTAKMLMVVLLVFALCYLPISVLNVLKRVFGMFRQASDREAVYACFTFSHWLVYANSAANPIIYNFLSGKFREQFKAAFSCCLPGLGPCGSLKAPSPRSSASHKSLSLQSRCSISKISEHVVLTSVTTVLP
Description: Orexin receptor cell-based functional assay, [Ca2+]i by FLIPR, CHO-OX1 cells. The conditions noted are these: CHO-OX1 cells, [Ca2+]i by FLIPR, antagonist dose-range 0.1 nM-10 μM, EC90 of OXA; read-out: OX1. The essentials:
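CHO cells expressing human OX1 or OX2 loaded with calcium dye plus 2.5 mM probenecid at 37° C (calcium4, 30 min, or calcium6, 2 h), then exposed to compounds (0.1 nM-10 μM) for 30 min. Intracellular Ca2+ measured on FLIPR; antagonist format.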
As to `COc1c(F)cccc1C(=O)N1CCC[C@@H](C)[C@H]1CNc1ccc(C(F)(F)F)cn1` [Example A75, (3-Fluoro-2-methoxyphenyl)((2S,3R)-3-methyl-2-(((5-(trifluoromethyl)pyridin-2-yl)amino)methyl)piperidin-1-yl)methanone], the IC50 was 1300 nM.

Consider `Cc1nc(C(=O)N2CCC[C@@H](C)[C@H]2CNc2ccc(C(F)(F)F)cn2)c(-c2cccc(F)c2)s1` [Example A109, (5-(3-Fluorophenyl)-2-methylthiazol-4-yl)((2S,3R)-3-methyl-2-(((5-(trifluoromethyl)pyridin-2-yl)amino)methyl)piperidin-1-yl)methanone], for which the IC50 is less than 10 nM.

Still in this data set, the particulars now being: Table 2; CHO-OX1 cells, EC90 of OXA; read-out: IC50 Bioactivity OX1.
Consider `Cc1nc(C(=O)N2CCC[C@@H](C(F)(F)F)[C@H]2CNc2ccc(C(F)(F)F)cn2)c(-c2ccccc2)s1` (racemic) [Example 14, rac-cis-(2-Methyl-5-phenylthiazol-4-yl)(3-(trifluoromethyl)-2-(((5-(trifluoromethyl)pyridin-2-yl)amino)methyl)piperidin-1-yl)methanone], for which the IC50 was 9 nM.

For the compound `Cc1nc(C(=O)N2CCC[C@@H](C)[C@H]2CNc2ccnc(Cl)n2)c(-c2ccc(F)cc2)s1` (racemic) [Example 19, rac-cis-(2-(((2-Chloropyrimidin-4-yl)amino)methyl)-3-methylpiperidin-1-yl)(5-(4-fluorophenyl)-2-methylthiazol-4-yl)methanone], the IC50 stood at 270 nM.

Another data set addresses T2, CYP3A4 (Homo sapiens, UniProt P08684).
T2 construct: pre-incubated with human liver microsomes and NADPH; from tissue; host or cells: human liver microsomes
Description: Cytochrome P450 inhibition assay (midazolam hydroxylation). The data set is classed as in vitro ADME. The settings on record: human, human liver microsomes, probe midazolam (hydroxylation to 1′-hydroxymidazolam), 10 μM test compound, midazolam at approximately its Km. The protocol:
Compounds were tested for the potential to induce drug-drug interactions by inhibition of the cytochrome P450 3A4 isoform. The assay evaluated the metabolism of a specific marker substrate (CYP3A4, midazolam hydroxylation to 1′-hydroxymidazolam) in the presence or absence of 10 μM test compound. The concentration of the marker substrate was approximately its Km (Dixit et al., Biopharm. Drug Dispos. 2007, 28(5), 257-262). A specific inhibitor for the isoform was included in each run to validate the system. An appropriate positive control inhibitor was used. Mechanism-based inhibition was investigated where warranted using a classical method. To evaluate time-dependent inhibition, parallel samples may have been included where […] was pre-incubated with human liver microsomes and NADPH for 30 min prior to the addition of the P450 substrate. The percent inhibition of the pre-incubated and non-pre-incubated samples were compared as a preliminary evaluation of time-dependent inhibition.
(In general: Microsomes from liver hold many membrane-bound enzymes, among them those of drug oxidation.)
Compound `Cc1cc(F)c(-c2ncccn2)c(C(=O)N2CCC[C@@H](C)[C@H]2CNc2ccc(C(F)(F)F)cn2)c1` [Example A374, (3-fluoro-5-methyl-2-(pyrimidin-2-yl)phenyl)((2S,3R)-3-methyl-2-(((5-(trifluoromethyl)pyridin-2-yl)amino)methyl)piperidin-1-yl)methanone] displayed an inhibition at 10 µM of 76%.

`Cc1ccc(-c2cccnn2)c(C(=O)N2CCC[C@@H](C)[C@H]2CNc2ncc(C(F)(F)F)cn2)c1` [Example A198, ((2S,3R)-3-Methyl-2-(((5-(trifluoromethyl)pyrimidin-2-yl)amino)methyl)piperidin-1-yl)(5-methyl-2-(pyridazin-3-yl)phenyl)methanone] registered an inhibition at 10 µM of 51%.

Compound `Cc1ccc(-c2ccc(C)cc2C(=O)N2CCC[C@@H](C)[C@H]2CNc2ccc(C(F)(F)F)cn2)nc1` [Example A118, ((2S,3R)-3-Methyl-2-(((5-(trifluoromethyl)pyridin-2-yl)amino)methyl)piperidin-1-yl)(5-methyl-2-(5-methylpyridin-2-yl)phenyl)methanone] showed an inhibition at 10 µM of 95%.

The compound `Cc1ccc(C#N)c(C(=O)N2CCC[C@@H](C)[C@H]2CNc2ccc(C(F)(F)F)cn2)c1` [Example A22, 4-Methyl-2-((2S,3R)-3-methyl-2-(((5-(trifluoromethyl)pyridin-2-yl)amino)methyl)piperidine-1-carbonyl)benzonitrile] gave an inhibition at 10 µM of 72%.

Take `Cc1ccc(-c2ncccn2)c(C(=O)N2CCC(F)(F)C[C@H]2CNc2ncc(C(F)(F)F)cn2)c1` [Example A312, (S)-(4,4-Difluoro-2-(((5-(trifluoromethyl)pyrimidin-2-yl)amino)methyl)piperidin-1-yl)(5-methyl-2-(pyrimidin-2-yl)phenyl)methanone]: the inhibition at 10 µM was 40%.

The compound `Cc1ccc(-n2nccn2)c(C(=O)N2CCC[C@@H](C)[C@H]2CNc2ncc(C#N)cc2F)n1` [Example A193, 5-Fluoro-6-((((2S,3R)-3-methyl-1-(6-methyl-3-(2H-1,2,3-triazol-2-yl)picolinoyl)piperidin-2-yl)methyl)amino)nicotinonitrile] registered an inhibition at 10 µM of 45%.

As for `Cc1ccc(-c2ccccn2)c(C(=O)N2CCC[C@@H](C)[C@H]2CNc2nc3cc(F)ccc3o2)c1` [Example A128, ((2S,3R)-2-(((5-Fluorobenzo[d]oxazol-2-yl)amino)methyl)-3-methylpiperidin-1-yl)(5-methyl-2-(pyridin-2-yl)phenyl)methanone], the inhibition at 10 µM was 88%.

Compound `Cc1ccc(-c2ccc(C)nc2)c(C(=O)N2CCC[C@@H](C)[C@H]2CNc2nc3cc(Cl)ccc3o2)c1` [Example A38, ((2S,3R)-2-(((5-Chlorobenzo[d]oxazol-2-yl)amino)methyl)-3-methylpiperidin-1-yl)(5-methyl-2-(6-methylpyridin-3-yl)phenyl)methanone] displayed an inhibition at 10 µM of 96%.

The compound `Cc1ccc(-c2ncccn2)c(C(=O)N2CCC[C@@H](C)[C@H]2CNc2ccc(C(F)(F)F)cn2)n1` [Example A183, ((2S,3R)-3-Methyl-2-(((5-(trifluoromethyl)pyridin-2-yl)amino)methyl)piperidin-1-yl)(6-methyl-3-(pyrimidin-2-yl)pyridin-2-yl)methanone] came in with an inhibition at 10 µM of 49%.

As for `Cc1ccc(-c2ccnc(C)n2)c(C(=O)N2CCC[C@@H](C)[C@H]2CNc2nc3cc(Cl)ccc3o2)c1` [Example A27, ((2S,3R)-2-(((5-Chlorobenzo[d]oxazol-2-yl)amino)methyl)-3-methylpiperidin-1-yl)(5-methyl-2-(2-methylpyrimidin-4-yl)phenyl)methanone], testing at 10 µM gave an inhibition of 95%.

On to `Cc1ccc(NC[C@@H]2[C@H](C)CCCN2C(=O)c2cc(C)ccc2-n2nccn2)nc1` [Example A48, ((2S,3R)-3-Methyl-2-(((5-methylpyridin-2-yl)amino)methyl)piperidin-1-yl)(5-methyl-2-(2H-1,2,3-triazol-2-yl)phenyl)methanone], for which the inhibition at 10 µM was found to be 74%.

As for `Cc1ccc(-n2nccn2)c(C(=O)N2CCC[C@@H](C)[C@H]2CNc2ncc3c(C)cccc3n2)c1` [Example A214, ((2S,3R)-3-Methyl-2-(((5-methylquinazolin-2-yl)amino)methyl)piperidin-1-yl)(5-methyl-2-(2H-1,2,3-triazol-2-yl)phenyl)methanone], the inhibition at 10 µM was found to be 69%.

The compound `Cc1ccc(-c2c(C)noc2C)c(C(=O)N2CCC[C@@H](C)[C@H]2CNc2ccc(C(F)(F)F)cn2)c1` [Example A7, (2-(3,5-Dimethylisoxazol-4-yl)-5-methylphenyl)((2S,3R)-3-methyl-2-(((5-(trifluoromethyl)pyridin-2-yl)amino)methyl)piperidin-1-yl)methanone] had an inhibition at 10 µM of 93%.

The compound `Cc1ccc(-n2nccn2)c(C(=O)N2CCC(F)(F)C[C@H]2CNc2ccc(Cl)cn2)c1` [Example A210, (S)-(2-(((5-Chloropyridin-2-yl)amino)methyl)-4,4-difluoropiperidin-1-yl)(5-methyl-2-(2H-1,2,3-triazol-2-yl)phenyl)methanone] registered an inhibition at 10 µM of 76%.

Take `Cc1ccc(-c2cnn(C)c2)c(C(=O)N2CCC[C@@H](C)[C@H]2CNc2ncc(F)cc2F)c1` [Example A96, ((2S,3R)-2-(((3,5-Difluoropyridin-2-yl)amino)methyl)-3-methylpiperidin-1-yl)(5-methyl-2-(1-methyl-1H-pyrazol-4-yl)phenyl)methanone]: the inhibition at 10 µM came to 92%.

In the case of `Cc1ccc(-c2cncs2)c(C(=O)N2CCC[C@@H](C)[C@H]2CNc2nc3cc(Cl)ccc3o2)c1` [Example A34, ((2S,3R)-2-(((5-Chlorobenzo[d]oxazol-2-yl)amino)methyl)-3-methylpiperidin-1-yl)(5-methyl-2-(thiazol-5-yl)phenyl)methanone], the inhibition at 10 µM was 99%.

`Cc1ccc(-c2cnn(C)c2)c(C(=O)N2CCC[C@@H](C)[C@H]2CNc2cccc(C(F)(F)F)n2)c1` [Example A94, ((2S,3R)-3-Methyl-2-(((6-(trifluoromethyl)pyridin-2-yl)amino)methyl)piperidin-1-yl)(5-methyl-2-(1-methyl-1H-pyrazol-4-yl)phenyl)methanone] came in with an inhibition at 10 µM of 99%.

Take `Cc1ccc(-c2cnn(C)c2)c(C(=O)N2CCC[C@@H](C)[C@H]2CNc2ncc(Cl)cc2F)c1` [Example A97, ((2S,3R)-2-(((5-Chloro-3-fluoropyridin-2-yl)amino)methyl)-3-methylpiperidin-1-yl)(5-methyl-2-(1-methyl-1H-pyrazol-4-yl)phenyl)methanone]: the inhibition at 10 µM was found to be 98%.

With `Cc1ccc(NC[C@@H]2[C@H](C)CCCN2C(=O)c2nc(C)ccc2-n2nccn2)nc1` [Example A196, ((2S,3R)-3-Methyl-2-(((5-methylpyridin-2-yl)amino)methyl)piperidin-1-yl)(6-methyl-3-(2H-1,2,3-triazol-2-yl)pyridin-2-yl)methanone], the inhibition at 10 µM stood at 50%.

By inhibition is commonly meant how much of the control response was suppressed. Read a high inhibition as strong suppression.
